Data reported in US20170319641A1, “MUCOADHESIVE EMOLLIENT” (BIOGLAN AB, priority 2014, published 2017).

Assays:
Mucin = assay: Mucoadhesion, tensile strength with texture analyzer, towards mucin; conditions: upper sample Mucin
Description: Mucoadhesion is related to the ability to adhere to the mucosa. […] Hygroscopic formulations absorbs water molecules but at different timescales depending on the composition. Tensile strength using micro balance texture analyzer was used to measure the mucoadhesion. The work needed to separate two layers from each other is calculated as well as the peak measured force.
The microemulsions show quite strong mucoadhesion, with similar tensile strength values. To get some reference values, the mucoadhesion of olive oil, propylene glycol and PGMO were also tested as well as the adhesion of microemulsions towards water. Propylene glycol was chosen to determine if humectant properties on its own had any influence on the adhesion strength.

[1] = pure liquids at 25° C.; cited from earlier work

| Structure (SMILES) | Peak force (Mucin) [kg] | Mucoadhesion (Mucin; work needed to separate layers) [kg·s] | Surface tension [1] [mN/m] |
| --- | --- | --- | --- |
| CC(O)CO (stereo not shown) [Propylene Glycol, propylene glycol] | 0.50 ± 0.05 | 0.051 ± 0.009 | 45.6 |
| OCC(O)CO [glycerol] |  |  | 76 |
